Experimental data as given in the supplement of paper PMC10627819.

Tests used:
B. subtilis 168 [1] = experiment: fitness (endpoint OD595 vs no drug) (fraction); higher = more growth
How it was run: (§1)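 Fitness was measured as bacterial growth in 384-well plates inoculated at OD595 0.01 (30 µl, or 55 µl for S. pneumoniae). Media were TSB, LB Lennox or CY, at 37 °C. OD595 was read every 30 min for 14 h and background-subtracted against the first reading. Fitness is OD595 at the transition into stationary phase divided by the robust mean of no-drug control wells, capped at 1.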

S. pneumoniae D39V [2] = experiment: as above
How it was run: as §1

S. aureus Newman = experiment: Bliss interaction score (quartile over a dose matrix) (fitness difference); higher = more antagonism (negative = synergy)
How it was run: (§2)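 Fitness was defined as normalised growth: OD595 at the start of stationary phase divided by the plate's robust no-drug mean and capped at 1. Single-drug fitness was inferred from combination measurements. The Bliss score is observed fitness minus the product of the single-drug values, summarised by quartiles across technical, biological and donor/recipient replicates.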

B. subtilis 168 [3] = experiment: as above
How it was run: as §2

S. pneumoniae D39V [4] = experiment: as above
How it was run: as §2

S. aureus DSM 20231 = experiment: as above
How it was run: as §2
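Wherever Bliss interaction score (quartile over a dose matrix) is given: first quartile when negative (synergy) and third quartile when positive (antagonism).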
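Wherever fitness (endpoint OD595 vs no drug) is given: OD595 on entry to stationary phase over no-drug wells; at most 1.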

C[C@H]1c2cccc(O)c2C(=O)C2=C(O)[C@]3(O)C(=O)C(C(N)=O)=C(O)[C@@H](N(C)C)[C@@H]3[C@@H](O)[C@@H]21 [Doxycycline] + CN[C@@H]1[C@H](O[C@H]2[C@H](O[C@H]3[C@H](O)[C@@H](O)[C@H](N=C(N)N)[C@@H](O)[C@@H]3N=C(N)N)O[C@@H](C)[C@]2(O)C=O)O[C@@H](CO)[C@H](O)[C@H]1O [Streptomycin]
fitness
Conditions | partner 2 µg/mL | partner 4 µg/mL | partner 8 µg/mL
B. subtilis 168 [1], first compound 0.02 µg/mL | 0.902 | 0.772 | –
B. subtilis 168 [1], first compound 0.04 µg/mL | 0.766 | 0.678 | –
B. subtilis 168 [1], first compound 0.08 µg/mL | 0.497 | – | –
S. pneumoniae D39V [2], first compound 0.0155 µg/mL | 0.9 | 0.895 | 0.891
S. pneumoniae D39V [2], first compound 0.031 µg/mL | 0.866 | 0.859 | 0.837
S. pneumoniae D39V [2], first compound 0.062 µg/mL | 0.72 | 0.714 | 0.735

S. pneumoniae D39V [2], one replicate
Conditions | fitness
first compound 0.003875 µg/mL, partner 2 µg/mL | 0.955
first compound 0.003875 µg/mL, partner 4 µg/mL | ≥ 1
first compound 0.003875 µg/mL, partner 8 µg/mL | 0.977
first compound 0.00775 µg/mL, partner 2 µg/mL | 0.928
first compound 0.00775 µg/mL, partner 4 µg/mL | 0.952
first compound 0.00775 µg/mL, partner 8 µg/mL | 0.937
first compound 0.0155 µg/mL, partner 16 µg/mL | 0.741
first compound 0.031 µg/mL, partner 16 µg/mL | 0.671
first compound 0.062 µg/mL, partner 16 µg/mL | 0.57

Conditions | Bliss interaction score
B. subtilis 168 [3] | 0.251
S. aureus DSM 20231 | 0.0508
S. aureus Newman | -0.016
S. pneumoniae D39V [4] | -0.0673

CO/N=C(\C(=O)N[C@@H]1C(=O)N2C(C(=O)O)=C(COC(C)=O)CS[C@H]12)c1csc(N)n1 [Cefotaxime] + CN(C)C(=O)C(CCN1CCC(O)(c2ccc(Cl)cc2)CC1)(c1ccccc1)c1ccccc1 [Loperamide]
fitness, one replicate
Conditions | first compound 0.0018 µg/mL | first compound 0.0035 µg/mL | first compound 0.007 µg/mL | first compound 0.00775 µg/mL | first compound 0.0155 µg/mL | first compound 0.031 µg/mL
B. subtilis 168 [1], partner 25 µg/mL | – | – | – | 0.406 | 0.0668 | 0.0762
B. subtilis 168 [1], partner 50 µg/mL | – | – | – | 0.0446 | 0.0311 | 0.0295
B. subtilis 168 [1], partner 100 µg/mL | – | – | – | 0.0412 | 0.0228 | 0.0243
S. pneumoniae D39V [2], partner 68.57 µg/mL | ≥ 1 | 0.999 | 0.761 | – | – | –

Conditions | fitness
B. subtilis 168 [1], first compound 0.5 µg/mL, partner 25 µg/mL | 0.0401
B. subtilis 168 [1], first compound 0.5 µg/mL, partner 50 µg/mL | 0.0447
B. subtilis 168 [1], first compound 0.5 µg/mL, partner 100 µg/mL | 0.0339
B. subtilis 168 [1], first compound 1 µg/mL, partner 25 µg/mL | 0.0257
B. subtilis 168 [1], first compound 1 µg/mL, partner 50 µg/mL | 0.0406
B. subtilis 168 [1], first compound 1 µg/mL, partner 100 µg/mL | 0.032
B. subtilis 168 [1], first compound 2 µg/mL, partner 25 µg/mL | 0.0689
B. subtilis 168 [1], first compound 2 µg/mL, partner 50 µg/mL | 0.0803
B. subtilis 168 [1], first compound 2 µg/mL, partner 100 µg/mL | 0.0709
S. pneumoniae D39V [2], first compound 0.0018 µg/mL, partner 17.14 µg/mL | 0.977
S. pneumoniae D39V [2], first compound 0.0018 µg/mL, partner 20 µg/mL | 0.988
S. pneumoniae D39V [2], first compound 0.0018 µg/mL, partner 34.28 µg/mL | 0.984
S. pneumoniae D39V [2], first compound 0.0018 µg/mL, partner 40 µg/mL | ≥ 1
S. pneumoniae D39V [2], first compound 0.0018 µg/mL, partner 80 µg/mL | ≥ 1
S. pneumoniae D39V [2], first compound 0.0035 µg/mL, partner 17.14 µg/mL | 0.981
S. pneumoniae D39V [2], first compound 0.0035 µg/mL, partner 20 µg/mL | 0.984
S. pneumoniae D39V [2], first compound 0.0035 µg/mL, partner 34.28 µg/mL | 0.935
S. pneumoniae D39V [2], first compound 0.0035 µg/mL, partner 40 µg/mL | 0.977
S. pneumoniae D39V [2], first compound 0.0035 µg/mL, partner 80 µg/mL | 0.956
S. pneumoniae D39V [2], first compound 0.007 µg/mL, partner 20 µg/mL | 0.898
S. pneumoniae D39V [2], first compound 0.007 µg/mL, partner 40 µg/mL | 0.842
S. pneumoniae D39V [2], first compound 0.007 µg/mL, partner 80 µg/mL | 0.262

Conditions | Bliss interaction score
B. subtilis 168 [3] | -0.0982
S. aureus DSM 20231 | -0.0602
S. aureus Newman | 0.0269
S. pneumoniae D39V [4] | -0.0572

C[C@H]1c2cccc(O)c2C(=O)C2=C(O)[C@]3(O)C(=O)C(C(N)=O)=C(O)[C@@H](N(C)C)[C@@H]3[C@@H](O)[C@@H]21 [Doxycycline] + CC(C1CCC(C(O1)OC2C(CC(C(C2O)OC3C(C(C(CO3)(C)O)NC)O)N)N)N)NC [Gentamicin]
main component drawn
Conditions | fitness
B. subtilis 168 [1], first compound 0.02 µg/mL, partner 0.0625 µg/mL | 0.896
B. subtilis 168 [1], first compound 0.04 µg/mL, partner 0.0625 µg/mL | 0.747
B. subtilis 168 [1], first compound 0.08 µg/mL, partner 0.25 µg/mL | 0.0845
S. pneumoniae D39V [2], first compound 0.0155 µg/mL, partner 2 µg/mL | 0.885
S. pneumoniae D39V [2], first compound 0.0155 µg/mL, partner 4 µg/mL | 0.857
S. pneumoniae D39V [2], first compound 0.0155 µg/mL, partner 8 µg/mL | 0.824

fitness, S. pneumoniae D39V [2], one replicate, main component drawn
Conditions | partner 2 µg/mL | partner 4 µg/mL | partner 8 µg/mL
first compound 0.003875 µg/mL | ≥ 1 | ≥ 1 | ≥ 1
first compound 0.00775 µg/mL | ≥ 1 | 0.995 | 0.967

main component drawn
Conditions | Bliss interaction score
B. subtilis 168 [3] | 0.213
S. aureus DSM 20231 | 0.067
S. aureus Newman | 0.0873
S. pneumoniae D39V [4] | -0.208

C[C@H]1c2cccc(O)c2C(=O)C2=C(O)[C@]3(O)C(=O)C(C(N)=O)=C(O)[C@@H](N(C)C)[C@@H]3[C@@H](O)[C@@H]21 [Doxycycline] + Cc1onc(-c2ccccc2)c1C(=O)N[C@@H]1C(=O)N2[C@@H]1SC(C)(C)[C@@H]2C(=O)O [Oxacillin]
Conditions | fitness
B. subtilis 168 [1], first compound 0.02 µg/mL, partner 0.002 µg/mL | 0.885
B. subtilis 168 [1], first compound 0.02 µg/mL, partner 0.004 µg/mL | 0.933
B. subtilis 168 [1], first compound 0.02 µg/mL, partner 0.008 µg/mL | 0.882
B. subtilis 168 [1], first compound 0.04 µg/mL, partner 0.002 µg/mL | 0.762
B. subtilis 168 [1], first compound 0.04 µg/mL, partner 0.004 µg/mL | 0.771
B. subtilis 168 [1], first compound 0.04 µg/mL, partner 0.008 µg/mL | 0.716
B. subtilis 168 [1], first compound 0.08 µg/mL, partner 0.002 µg/mL | 0.419
B. subtilis 168 [1], first compound 0.08 µg/mL, partner 0.004 µg/mL | 0.422
B. subtilis 168 [1], first compound 0.08 µg/mL, partner 0.008 µg/mL | 0.372
S. pneumoniae D39V [2], first compound 0.0155 µg/mL, partner 0.01 µg/mL | 0.957
S. pneumoniae D39V [2], first compound 0.0155 µg/mL, partner 0.02 µg/mL | 0.921
S. pneumoniae D39V [2], first compound 0.031 µg/mL, partner 0.01 µg/mL | 0.917
S. pneumoniae D39V [2], first compound 0.031 µg/mL, partner 0.02 µg/mL | 0.885
S. pneumoniae D39V [2], first compound 0.062 µg/mL, partner 0.01 µg/mL | 0.859
S. pneumoniae D39V [2], first compound 0.062 µg/mL, partner 0.02 µg/mL | 0.801
S. pneumoniae D39V [2], first compound 0.062 µg/mL, partner 0.04 µg/mL | 0.71

fitness, one replicate
Conditions | partner 0.0078 µg/mL | partner 0.01 µg/mL | partner 0.0155 µg/mL | partner 0.02 µg/mL | partner 0.031 µg/mL | partner 0.04 µg/mL | partner 0.075 µg/mL | partner 0.15 µg/mL | partner 0.3 µg/mL
B. subtilis 168 [1], first compound 0.02 µg/mL | ≥ 1 | – | ≥ 1 | – | ≥ 1 | – | 0.661 | 0.0438 | 0.0604
B. subtilis 168 [1], first compound 0.04 µg/mL | 0.858 | – | 0.843 | – | 0.843 | – | 0.576 | 0.025 | 0.0223
B. subtilis 168 [1], first compound 0.08 µg/mL | 0.721 | – | 0.742 | – | 0.716 | – | 0.102 | 0.0327 | 0.0213
S. pneumoniae D39V [2], first compound 0.003875 µg/mL | – | ≥ 1 | – | 0.978 | – | 0.357 | – | – | –
S. pneumoniae D39V [2], first compound 0.00775 µg/mL | – | ≥ 1 | – | 0.959 | – | 0.571 | – | – | –

Conditions | Bliss interaction score
B. subtilis 168 [3] | 0.0493
S. aureus DSM 20231 | 0.0402
S. aureus Newman | -0.0136
S. pneumoniae D39V [4] | 0.159
